Laboratory results from the supplement of paper PMC10627819.

These compounds were tested on S. aureus DSM 20231 (assay: Bliss interaction score (quartile over a dose matrix) (fitness difference); higher = more antagonism (negative = synergy)).
Outline: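 Fitness was derived from optical density at entry into stationary phase, divided by the robust mean of the no-drug wells on the same plate. That reading was taken as OD595, and the ratio was capped at 1. Single-drug fitness was inferred from the combination data. The Bliss score, observed fitness minus the expected product of single-drug fitness, was summarised as quartiles over technical, biological and donor/recipient replicates.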
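Further: first quartile when negative (synergy) and third quartile when positive (antagonism).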

Row | Structure (SMILES) | Bliss interaction score
1 | COCCOC(=O)C1=C(C)NC(C)=C(C(=O)OC/C=C/c2ccccc2)C1c1cccc([N+](=O)[O-])c1 (configuration not stated) [Cilnidipine] + Cn1nnc(-c2ccc(-c3ccc(N4C[C@H](CO)OC4=O)cc3F)cn2)n1 [Tedizolid] | -0.429
2 | CO/N=C(\C(=O)N[C@@H]1C(=O)N2C(C(=O)O)=C(COC(C)=O)CS[C@H]12)c1csc(N)n1 [Cefotaxime] + O=c1[nH]cc(F)c(=O)[nH]1 [Fluorouracil] | -0.114
3 | CC(=O)Oc1ccccc1C(=O)O [Acetylsalicylicacid] + CCN(CC)C(=O)/C(C#N)=C/c1cc(O)c(O)c([N+](=O)[O-])c1 [Entacapone] | 0.143
4 | O=C(O)c1cc(-c2ccc(F)cc2F)ccc1O [Diflunisal] + CN(C)C(=O)C(CCN1CCC(O)(c2ccc(Cl)cc2)CC1)(c1ccccc1)c1ccccc1 [Loperamide] | 0.356
5 | CO/N=C(\C(=O)N[C@@H]1C(=O)N2C(C(=O)O)=C(COC(C)=O)CS[C@H]12)c1csc(N)n1 [Cefotaxime] + Nc1ccc(O)c(C(=O)O)c1 [Mesalamine] | 0.16
6 | COCCOC(=O)C1=C(C)NC(C)=C(C(=O)OC/C=C/c2ccccc2)C1c1cccc([N+](=O)[O-])c1 (configuration not stated) [Cilnidipine] + CN(C)[C@@H]1C(O)=C(C(N)=O)C(=O)[C@@]2(O)C(O)=C3C(=O)c4c(O)ccc(Cl)c4[C@@](C)(O)[C@H]3C[C@@H]12 [Clortetracycline] | -0.323
7 | CC(=O)Oc1ccccc1C(=O)O [Acetylsalicylicacid] + CC(C)Cc1ccc(C(C)C(=O)O)cc1 [Ibuprofen] | -0.275
8 | Cc1ncc([N+](=O)[O-])n1CCO [Metronidazole] + CCCSc1nc(N[C@@H]2C[C@H]2c2ccc(F)c(F)c2)c2nnn([C@@H]3C[C@H](OCCO)[C@@H](O)[C@H]3O)c2n1 [Ticagrelor] | 0.152
9 | CC(=O)Oc1ccccc1C(=O)O [Acetylsalicylicacid] + CC(C)c1c(C(=O)Nc2ccccc2)c(-c2ccccc2)c(-c2ccc(F)cc2)n1CC[C@@H](O)C[C@@H](O)CC(=O)O [Atorvastatin] | 0.213
10 | COCCOC(=O)C1=C(C)NC(C)=C(C(=O)OC/C=C/c2ccccc2)C1c1cccc([N+](=O)[O-])c1 (configuration not stated) [Cilnidipine] + CC1(C)S[C@@H]2[C@H](NC(=O)Cc3ccccc3)C(=O)N2[C@H]1C(=O)O [PenicillinG] | -0.229
11 | COCCOC(=O)C1=C(C)NC(C)=C(C(=O)OC/C=C/c2ccccc2)C1c1cccc([N+](=O)[O-])c1 (configuration not stated) [Cilnidipine] + C[C@H]1c2cccc(O)c2C(=O)C2=C(O)[C@]3(O)C(=O)C(C(N)=O)=C(O)[C@@H](N(C)C)[C@@H]3[C@@H](O)[C@@H]21 [Doxycycline] | -0.272
12 | CC(=O)Oc1ccccc1C(=O)O [Acetylsalicylicacid] + C[C@]12CC[C@@H]3c4ccc(O)cc4CC[C@H]3[C@@H]1CC[C@@H]2O [Estradiol] | 0.162
13 | O=C(O)c1cc(-c2ccc(F)cc2F)ccc1O [Diflunisal] + CC(=O)O[C@H]1C[C@@]2(C)[C@@H](C[C@@H](O)[C@H]3[C@@]4(C)CC[C@@H](O)[C@@H](C)[C@@H]4CC[C@@]32C)/C1=C(\CCC=C(C)C)C(=O)O [Fusidic acid] | 0.199
14 | CC(=O)Oc1cccc2c1C(=O)c1c(OC(C)=O)cc(C(=O)O)cc1C2=O [Diacerein] + CN(C)C(=O)C(CCN1CCC(O)(c2ccc(Cl)cc2)CC1)(c1ccccc1)c1ccccc1 [Loperamide] | -0.474
15 | CC(=O)Oc1ccccc1C(=O)O [Acetylsalicylicacid] + C=C1/C(=C\C=C2/CCC[C@]3(C)[C@@H]([C@H](C)CCCC(C)C)CC[C@@H]23)C[C@@H](O)C[C@@H]1O [Alfacalcidol] | -0.294
16 | Cn1c(=O)c2c(ncn2C)n(C)c1=O [Caffeine] + CCC[C@@H]1C[C@@H](C(=O)N[C@@H]([C@H]2O[C@H](SC)[C@H](O)[C@@H](O)[C@H]2O)[C@@H](C)O)N(C)C1 [Lincomycin] | -0.292
17 | COCCOC(=O)C1=C(C)NC(C)=C(C(=O)OC/C=C/c2ccccc2)C1c1cccc([N+](=O)[O-])c1 (configuration not stated) [Cilnidipine] + COc1cc(Cc2cnc(N)nc2N)cc(OC)c1OC [Trimethoprim] | -0.299
